According to ChEMBL document CHEMBL1201862, “PubChem BioAssay data set” (2004):
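Following 48 hours of exposure in 96-well plates, responses at five concentrations were used to interpolate endpoints linearly. Here, GI50 denotes the concentration required for 50% inhibition of growth.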 Activity calls are given as the source filed them. Rule as the data show it: active = GI50 up to about 1.1 µM and inactive = higher.

Legend:
Assay in all cases: NCI tumour cell line growth inhibition, 48 h
COLO 205 = system: COLO 205
EKVX = system: EKVX
HCT-116 = system: HCT-116
HOP-92 = system: HOP-92
LOX IMVI = system: LOX IMVI
MDA-MB-435 = system: MDA-MB-435
MDA-N = system: MDA-N
MOLT-4 = system: MOLT-4
NCI-H460 = system: NCI-H460
NCI-H522 = system: NCI-H522
OVCAR-8 = system: OVCAR-8
SK-MEL-28 = system: SK-MEL-28
SK-MEL-2 = system: SK-MEL-2
SN12C = system: SN12C
SNB-19 = system: SNB-19
SNB-75 = system: SNB-75
SR = system: SR
SW-620 = system: SW-620
T47D = system: T47D
UO-31 = system: UO-31

Measured: GI50

CC1OC(OC2C(O)COC(OC3C(C)OC(OC4C(OC(=O)[C@]56CCC(C)(C)C[C@@H]5C5=CCC7[C@@]8(C)C[C@H](O)[C@H](OC9OC(CO)C(O)C(OC%10OC(CO)C(O)C(O)C%10O)C9O)[C@@](C)(CO)[C@@H]8CC[C@@]7(C)[C@]5(C)CC6)OCC(O)C4O)C(O)C3OC3OCC(O)C(O)C3O)C2O)C(O)C(O)C1O (some centres not stated)
inactive: COLO 205 1.92 µM | EKVX 7.05 µM | HCT-116 11.3 µM | HOP-92 12.3 µM | LOX IMVI 13.2 µM | MDA-MB-435 2.66 µM | MDA-N 2.87 µM | MOLT-4 16.6 µM | NCI-H460 17.4 µM | NCI-H522 9.93 µM | OVCAR-8 13.1 µM | SK-MEL-28 2.27 µM | SK-MEL-2 3.47 µM | SN12C 2 µM | SNB-19 7.67 µM | SNB-75 16 µM | SR 7.08 µM | SW-620 6.35 µM | T47D 3.96 µM | UO-31 3.15 µM

Cc1cc(N(CCCl)CCCl)ccc1/C=N/NC(=O)Cc1cc(=O)oc2cc(O)ccc12
inactive: COLO 205 17.7 µM | EKVX 20.4 µM | HCT-116 17.5 µM | HOP-92 27 µM | LOX IMVI 12.6 µM | MDA-MB-435 11.2 µM | MDA-N 12.7 µM | MOLT-4 5.6 µM | NCI-H460 8.93 µM | NCI-H522 13.7 µM | OVCAR-8 19.5 µM | SK-MEL-28 12.6 µM | SK-MEL-2 32.3 µM | SN12C 16 µM | SNB-19 18 µM | SNB-75 28.6 µM | SR 7.08 µM | SW-620 21.4 µM | T47D 6.85 µM | UO-31 22.9 µM

CCCCCCCCC/C=C1/CC(CO)(COC(=O)C2CCCCC2)OC1=O (configuration not stated)
inactive: COLO 205 34 µM | EKVX > 100 µM | HCT-116 > 100 µM | HOP-92 > 100 µM | LOX IMVI 72.4 µM | MDA-MB-435 98.4 µM | MDA-N 86.7 µM | MOLT-4 > 100 µM | NCI-H460 > 100 µM | NCI-H522 63.1 µM | OVCAR-8 > 100 µM | SK-MEL-28 > 100 µM | SK-MEL-2 > 100 µM | SN12C > 100 µM | SNB-19 > 100 µM | SNB-75 > 100 µM | SR > 100 µM | SW-620 > 100 µM | T47D > 100 µM | UO-31 > 100 µM

CN(C)C(=S)N1C(=S)N(c2ccccc2)C(=N/c2ccccc2)/C1=N\c1ccccc1
inactive: COLO 205 > 100 µM | EKVX > 100 µM | HCT-116 > 100 µM | HOP-92 > 100 µM | LOX IMVI > 100 µM | MDA-MB-435 > 100 µM | MDA-N > 100 µM | MOLT-4 > 100 µM | NCI-H460 > 100 µM | NCI-H522 6.82 µM | OVCAR-8 > 100 µM | SK-MEL-28 > 100 µM | SK-MEL-2 > 100 µM | SN12C > 100 µM | SNB-19 > 100 µM | SNB-75 > 100 µM | SR > 100 µM | SW-620 > 100 µM | T47D > 100 µM | UO-31 > 100 µM

O=C(CCC1CCCCC1)NCc1ccc(C(=O)O)cc1
inactive: COLO 205 > 100 µM | EKVX 56.9 µM | HCT-116 > 100 µM | HOP-92 > 100 µM | LOX IMVI > 100 µM | MDA-MB-435 > 100 µM | MDA-N > 100 µM | MOLT-4 > 100 µM | NCI-H460 > 100 µM | NCI-H522 > 100 µM | OVCAR-8 > 100 µM | SK-MEL-28 > 100 µM | SK-MEL-2 > 100 µM | SN12C > 100 µM | SNB-19 > 100 µM | SNB-75 > 100 µM | SR > 100 µM | SW-620 > 100 µM | T47D > 100 µM | UO-31 > 100 µM

O=C(O)Cc1cc(Cl)ccc1O
inactive: COLO 205 > 100 µM | EKVX > 100 µM | HCT-116 > 100 µM | HOP-92 > 100 µM | LOX IMVI > 100 µM | MDA-MB-435 > 100 µM | MDA-N > 100 µM | NCI-H460 > 100 µM | NCI-H522 > 100 µM | OVCAR-8 > 100 µM | SK-MEL-28 > 100 µM | SK-MEL-2 > 100 µM | SN12C > 100 µM | SNB-19 > 100 µM | SNB-75 > 100 µM | SR > 76.9 µM | SW-620 > 100 µM | T47D > 100 µM | UO-31 > 100 µM

C#C[C@]1(O)CC[C@H]2[C@@H]3CCC4=C/C(=N/OC(=O)c5cccc6c(=O)c7ccccc7[nH]c56)CCC4[C@H]3CC[C@@]21CC (some centres not stated)
inactive: COLO 205 37.2 µM | EKVX 22.2 µM | HCT-116 25 µM | HOP-92 42.6 µM | LOX IMVI 15.7 µM | MDA-MB-435 26.5 µM | MDA-N 26.4 µM | MOLT-4 4.3 µM | NCI-H460 14.3 µM | NCI-H522 20.8 µM | OVCAR-8 19.8 µM | SK-MEL-28 22 µM | SK-MEL-2 32.4 µM | SN12C 39.6 µM | SNB-19 69.3 µM | SNB-75 9.18 µM | SR 3.25 µM | SW-620 24 µM | T47D 24.8 µM | UO-31 23.2 µM

CC(=O)O[C@H]1C(=O)[C@@]2(C)[C@H]([C@H](OC(=O)c3ccccc3)[C@]3(O)C[C@H](OC(=O)[C@H](O)[C@@H](NC(=O)OC(C)(C)C)c4ccco4)C(C)=C1C3(C)C)[C@]1(OC(C)=O)CO[C@@H]1C[C@@H]2O
inactive: EKVX 14.7 µM | HOP-92 7.23 µM
active: COLO 205 < 0.005 µM | HCT-116 < 0.005 µM | LOX IMVI 0.00546 µM | MDA-MB-435 < 0.005 µM | MDA-N < 0.005 µM | MOLT-4 0.00667 µM | NCI-H460 < 0.005 µM | NCI-H522 < 0.005 µM | OVCAR-8 0.00615 µM | SK-MEL-28 0.205 µM | SK-MEL-2 0.00723 µM | SN12C < 0.005 µM | SNB-19 0.00971 µM | SNB-75 < 0.005 µM | SR 0.053 µM | SW-620 < 0.005 µM | T47D 0.264 µM | UO-31 0.0105 µM

CCOC(=O)N1C/C(=C\c2ccccc2)C(=O)/C(=C/c2ccccc2)C1
inactive: COLO 205 4.7 µM | EKVX 10.6 µM | HCT-116 1.14 µM | HOP-92 6.56 µM | LOX IMVI 1.7 µM | MDA-MB-435 2.48 µM | MDA-N 1.72 µM | MOLT-4 1.96 µM | NCI-H460 4 µM | NCI-H522 2.56 µM | OVCAR-8 2.82 µM | SK-MEL-28 2.39 µM | SK-MEL-2 6.7 µM | SN12C 2.17 µM | SNB-19 4.72 µM | SNB-75 6.97 µM | SW-620 1.4 µM | T47D 3.65 µM | UO-31 5.85 µM
active: SR 0.873 µM

CC1OC(OC2C(O)COC(OC3C(C)OC(OC4C(OC(=O)[C@]56CCC(C)(C)C[C@@H]5C5=CCC7[C@@]8(C)C[C@H](O)[C@H](OC9OC(CO)C(O)C(OC%10OC(CO)C(O)C(O)C%10O)C9O)[C@@](C)(CO)[C@@H]8CC[C@@]7(C)[C@]5(C)CC6)OCC(O)C4O)C(O)C3O)C2O)C(O)C(O)C1O (some centres not stated)
inactive: COLO 205 5.15 µM | EKVX 12.8 µM | HCT-116 17.7 µM | HOP-92 20.6 µM | LOX IMVI 18 µM | MDA-MB-435 20.9 µM | MDA-N 17.1 µM | MOLT-4 15.5 µM | NCI-H460 19 µM | NCI-H522 15.5 µM | OVCAR-8 17 µM | SK-MEL-28 8.75 µM | SK-MEL-2 19.8 µM | SN12C 10.6 µM | SNB-19 16.4 µM | SNB-75 18.9 µM | SR 13.1 µM | SW-620 14.5 µM | T47D 16 µM | UO-31 4.17 µM

Cc1cc(C)nc(NS(=O)(=O)c2ccc(Nc3c4ccccc4nc4ccc(C(=O)Nc5ccc(S(N)(=O)=O)cc5)cc34)cc2)n1
inactive: COLO 205 > 100 µM | EKVX > 100 µM | HCT-116 > 100 µM | HOP-92 > 100 µM | LOX IMVI 50.6 µM | MDA-MB-435 > 100 µM | MDA-N > 100 µM | MOLT-4 > 100 µM | NCI-H460 > 100 µM | NCI-H522 > 100 µM | OVCAR-8 43 µM | SK-MEL-28 > 100 µM | SK-MEL-2 > 100 µM | SN12C > 100 µM | SNB-19 > 100 µM | SNB-75 > 100 µM | SR > 100 µM | SW-620 > 100 µM | T47D 78 µM | UO-31 > 100 µM

O=C1O[C@H](COC(=O)c2ccccc2)[C@@H](OC(=O)c2ccccc2)C=C1OC(=O)c1ccccc1
inactive: COLO 205 19.6 µM | EKVX 17.7 µM | HCT-116 17.3 µM | HOP-92 21.8 µM | LOX IMVI 19.8 µM | MDA-MB-435 25 µM | MDA-N 31.7 µM | MOLT-4 23.1 µM | NCI-H460 16.2 µM | NCI-H522 20.2 µM | OVCAR-8 21.8 µM | SK-MEL-2 23.5 µM | SN12C 18.8 µM | SNB-19 18.1 µM | SNB-75 25.8 µM | SR 18.5 µM | SW-620 19 µM | T47D 23.4 µM | UO-31 30.9 µM

CC1C(C#N)(C#N)C(C#N)=C(N)C1(C)[N+](=O)[O-] (configuration not stated)
inactive: COLO 205 44.6 µM | EKVX 21.5 µM | HCT-116 58.3 µM | HOP-92 2.92 µM | LOX IMVI 37.7 µM | MDA-MB-435 45.7 µM | MDA-N 64.6 µM | MOLT-4 25.4 µM | NCI-H460 30.6 µM | NCI-H522 36.7 µM | OVCAR-8 65.8 µM | SK-MEL-2 > 100 µM | SN12C 58.2 µM | SNB-19 > 100 µM | SNB-75 89.5 µM | SR 31.2 µM | SW-620 51.1 µM | T47D > 10 µM | UO-31 > 100 µM
